Measurements reported in US12102612B2, “Pharmaceutical composition comprising hydroquinone derivative for preventing or treating obesity or nonalcoholic steatohepatitis” (BIOTOXTECH CO., LTD., priority 2018, dated 2024).
Entries after “also recorded” stand apart in the source; their conditions may differ.

Experiments:
[1] = system: western diet NASH mouse models; details: cited from earlier work
[2] = system: normal persons and nonalcoholic fatty liver patients; details: 10-25 mg per adult; cited from earlier work
[3] = system: CD-1(ICR) mice; details: mouse, in vivo; cited from earlier work
[4] = system: nonalcoholic fatty liver in mice; details: cited from earlier work
[5] = system: mice; details: repeated for 13 weeks; cited from earlier work
[6] = system: MCD diet-fed NASH model (8 weeks); test: Efficacy in NASH model fed with methionine and choline deficient (MCD) diet for 8 weeks; format: in vivo, male C57BL/6 mice; details: MCD diet 8 weeks; for alleviative effect on NASH / inhibitory activity against NASH: compared to the negative control, RSV and DDB complex 200 mg/kg
From the text: A methionine and choline deficient (MCD) diet-fed model, in which steatosis has been induced as a result of the supply of a diet deficient in methionine and choline, which each play an important role in beta oxidation and very low-density lipoprotein, (VLDL) synthesis, is widely used as a model for observing an effect of alleviating NASH because it suffers from histopathologically serious lobular inflammation.
An MCD diet (RESEARCH DIETS, Product No: A02082002B) was fed 7-week-old male C57BL/6 mice for 4 weeks to induce nonalcoholic fatty liver and then for an additional 4 weeks during which the hydroquinone derivative compound 2,3,5-trimethylhydroquinone-1-hexylether (compound 1) according to the present invention and the comparative control drugs were orally administered to the mice at the specific doses repeatedly as indicated for test groups G3-G8 in Table 2. Alleviative effects on NASH were assessed by clinicopathological and histopathological examinations.
The normal group was fed with a normal diet (RESEARCH DIETS, Product No: A02082003B), but not the MCD diet. To the negative control, only the excipient 0.5% methyl cellulose (MC) aqueous solution was administered after the MCD diet was fed thereto. […] For resveratrol and the DDB hepatoprotectant, the daily dose was set forth to be 200 mg/kg.
(§1) The liver tissues were resected from mice fed with MCD diet for 8 weeks and prepared into hematoxylin-eosin (H&E) stained slides, as in the histopathological examination method of Test Example 1. Based on the criteria of Table 1, changes in 1) steatosis, 2) lesions such as hepatic lobular inflammation, etc. (lobular inflammation), and 3) ballooning degeneration of hepatocytes (ballooning) were analyzed and the scores were summed to afford NAFLD activity scores for evaluating therapeutic effects on NASH.

[7] = system: MCD diet-fed NASH model (12 weeks); test: Efficacy in NASH model fed with MCD diet for 12 weeks; format: in vivo, male C57BL/6 mice; details: MCD diet 12 weeks
From the text: The duration of feeding MCD diet was extended to a total of 12 weeks to increase the induction level of NASH. To this end, male C57BL/6 mice at 7 weeks of age were fed with a methionine and choline-deficient diet for 8 weeks to induce nonalcoholic fatty liver and then subjected to the same repeat administration program at the same doses for 4 weeks as in Table 2.

[8] = system: FFC diet-fed non-alcoholic steatohepatitis model; test: Efficacy in fat-, fructose- and cholesterol-rich (FFC) diet-fed non-alcoholic steatohepatitis model; format: in vivo, male C57BL/6 mice
From the text: FFC diet (fat-, fructose-, and cholesterol-rich diet) (RESEARCH DIETS, Product No.: D12079B) was fed to male C57BL/6 mice 6-7 weeks old for 16 weeks to induce nonalcoholic fatty liver. Only animals with a NAFLD activity score (NAS) of 3.2 or more were selected by biopsy. Two weeks after biopsy, the animals were divided into three test groups including a negative control injected with a 0.5% methyl cellulose (MC) aqueous solution only (FFC control) and compound 1 groups injected with a solution of compound 1 (2,3,5-trimethylhydroquinone-1-hexylether compound, 30 mg/kg and 200 mg/kg) in a 0.5% MC aqueous solution. Compound 1 was administered for a total of 2 months and evaluated for alleviative efficacy for NASH by histopathological examination.
For histopathological examination, the mice were sacrificed and subjected to hepatectomy. The liver tissues thus obtained were prepared into hematoxylin-eosin (H&E) stained slides. In brief, the resected liver tissues were fixed in 4% paraformaldehyde at 4° C. for 24 hours, washed with flowing water, embedded into paraffin, and sectioned into blocks 3-4 μm thick. The sectioned tissue was attached to a coated slide, de-paraffinized with xylene, and rehydrated with graded alcohols (99%, 95%, 90%, 80%, and 70% ethanol (EtOH)) before histological staining. The sectioned tissues were stained with hematoxylin for 5 min and washed with flowing water for 5 min, following by destaining with 1% HCl alcohol and ammonia. Subsequently, the tissues were washed with flowing water for 10 min, counterstained with eosin for 1 min, and dehydrated in the reverse order of the hydration before mounting.
The H&E-stained slides were histopathologically assessed under a microscope and scored according to the NAFLD activity score (NAS) criteria given in Table 1. NAFLD activity scores are expressed as a sum of assessment scores for changes in 1) steatosis, 2) lesions such as hepatic lobular inflammation, etc. (lobular inflammation), and 3) ballooning degeneration of hepatocytes (ballooning) and are widely used for evaluating the severity of NASH.

[9] = system: high-fat diet-fed obesity and NASH model; test: Efficacy in obesity and NASH model fed with high-fat diet (HFD); format: in vivo, male C57BL/6 mice
Protocol: High-fat diet with 60 kcal % (RESEARCH DIETS, Product No: D12492) was fed to 7-week-old male C57BL/6 mice for 16 weeks to induce nonalcoholic fatty liver, followed by repeatedly administering test substances, along with the high-fat diet, via an oral route for 9 weeks from weeks 17 to 25. Alleviative effects on NASH were assessed by clinicopathological and histopathological examinations.
The test groups included a normal control which was not fed with HFD, but with a normal diet (10 kcal % fat diet, RESEARCH DIETS, Product No: D12450B), a negative control which was fed with HFD and then with the excipient 0.5% methyl cellulose (MC) aqueous solution alone, compound 1 (2,3,5-trimethylhydroquinone-1-hexylether)-administered groups (30, 100, 200 mg/kg), and comparative controls (obeticholic acid 30 mg/kg, pioglitazone 10 mg/kg, and DDB hepatoprotectant 200 mg/kg).
During repeatedly oral administration of the test substances for 9 weeks as in the assay method of (1), the mice were observed and recorded for weight gain, food intake, and general symptoms.
as §1, with “Liver” for “The liver”, “from HFD-fed” for “from”, “mice” for “mice fed with MCD diet for 8 weeks”

[10] = system: high-fat diet-induced insulin resistance; test: Insulin resistance assay in high-fat diet-fed mice; format: in vivo, male C57BL/6 mice; details: week 7 of administration, vs negative control and other drug controls
Protocol: An insulin resistance assay was conducted on week 7 of administration of compound 1 to examine the effect of compound 1 on the insulin resistance induced by high-fat diet. For the insulin resistance assay, the mice were fast for 4 hours and intraperitoneally injected with insulin (0.7 IU/kg), followed by measuring blood glucose levels every 30 min. Insulin resistance was digitized for quantitative comparison. In this regard, while pre-insulin blood levels were set forth to be baselines, areas under the curves of reduced blood glucose levels were digitized into iAUC values (FIG. 14). Here, a smaller iAUC value means higher insulin resistance and a larger iAUC value means higher insulin sensitivity.

[11] = system: rats; test: Single-dose oral administration toxicity assay for rats; format: in vivo; details: single oral dose as high as 2000 mg/kg
[12] = system: rats; test: Toxicity assay of repetitive oral administration for 13 weeks; format: in vivo; details: repeated for 13 weeks
[13] = system: beagle dogs; test: Maximum tolerance dose in beagle dogs; format: in vivo
[14] = system: adult; test: Clinical trial phase 1 (single and 14-day repetitive administration); format: in vivo, human; details: for abnormal responses (such as dyslipidemia) after repetitive administration: up to 1,000 mg per adult for 14 days

CC[C@H]1[C@@H](O)[C@@H]2[C@H](CC[C@]3(C)[C@@H]([C@H](C)CCC(=O)O)CC[C@@H]23)[C@@]2(C)CC[C@@H](O)C[C@@H]12 [Obeticholic acid, obeticholic acid]
dose that aggravated NAFLD (liver fibrosis worsen, ALT level increased) [1]: ≥ 40 mg/kg
total cholesterol and LDL cholesterol levels (side effect) [2]: increasing total cholesterol and LDL cholesterol levels
dose causing serious side effects such as death of animals [3]: ≥ 175 mg/kg

CCc1ccc(CCOc2ccc(CC3SC(=O)NC3=O)cc2)nc1 (stereo not shown) [Pioglitazone, pioglitazone]
dose that aggravates fatty liver [4]: 25 mg/kg
dose at which subject death occurred [5]: ≥ 320 mg/kg
dose causing cardiac adverse effects [5]: ≥ 100 mg/kg

Oc1ccc(C=Cc2cc(O)cc(O)c2)cc1 [Resveratrol, resveratrol, reference compound]
alleviative effect on NASH / inhibitory activity against NASH [6]: did not exhibit an alleviative effect on NASH
alleviative effect on NASH ([7]; 200 mg/kg, compared to the negative control): did not exhibit an alleviative effect on NASH

CCCCCCOc1cc(C)c(O)c(C)c1C [compound 1, 2,3,5-trimethylhydroquinone-1-hexylether]
fatty liver ([8]; 30 and 200 mg/kg for 2 months, dose-dependent, FIG. 2): alleviated
NAFLD activity scores ([8]; 30 and 200 mg/kg for 2 months, dose-dependent, FIG. 3): alleviated
lobular inflammatory cellular infiltration (lobular inflammation) ([8]; compound 1 30 and 200 mg/kg for 2 months, vs FFC control, FIG. 1): decrease lobular inflammatory cellular infiltration
ALT level ([6]; 200 mg/kg, vs negative control and comparative control groups, FIG. 6): remarkably reduced
alleviative effect on NASH / inhibitory activity against NASH [6]: excellent inhibitory activity against NASH
effect of reducing lobular inflammatory cellular infiltration ([6]; oral 30 and 200 mg/kg for 4 weeks, vs MCD control, FIG. 4): remarkable
NAFLD activity scores ([6]; FIG. 5): reduce
anti-inflammatory efficacy compared to pioglitazone (PGZ) and obeticholic acid (OCA) ([6]; PGZ 10 mg/kg, OCA 30 mg/kg): excellent anti-inflammatory efficacy
lobular inflammatory cellular infiltration ([7]; oral 30 and 200 mg/kg for 4 weeks, vs MCD control, dose-dependent, FIG. 7): reduced lobular inflammatory cellular infiltration
NAFLD activity scores ([7]; vs MCD control, dose-dependent, FIG. 8): lowered NAFLD activity scores
anti-inflammatory effect compared to pioglitazone (PGZ) and obeticholic acid (OCA) ([7]; PGZ 10 mg/kg, OCA 30 mg/kg): excellent anti-inflammatory effect
suppressive effect on lobular inflammation ([9]; 200 mg/kg, compared to the other drug groups): remarkably highly suppressive effect
fatty liver ([9]; 30, 100, 200 mg/kg, vs HFD control, dose-dependent): alleviated
hepatic lobular cellular infiltration ([9]; 30, 100, 200 mg/kg, vs HFD control, dose-dependent, FIG. 15): alleviated
blood levels of cholesterol ([9]; HFD model, compared to the negative control, FIG. 19(A)): reduced
blood levels of triglyceride ([9]; HFD model, compared to the negative control, FIG. 19(B)): reduced
ALT ([9]; HFD model, relative to normal levels, FIG. 17): recovered
AST ([9]; HFD model, relative to normal levels, FIG. 18): recovered
ALT levels vs the other drug controls ([9]; HFD model, FIG. 17): further reduced
AST levels vs the other drug controls ([9]; HFD model, FIG. 18): further reduced
accumulation of visceral fats such as epididymal fats (epididymal fat weights) ([9]; autopsy after 9 weeks oral administration, FIG. 11): excellent effect of inhibiting the accumulation of visceral fats
therapeutic effects on NASH by histopathological examinations (lobular inflammation, NAFLD activity scores) ([9]; compared to the other drugs, FIGS. 15 and 16): excellent therapeutic effects on NASH
weight gain increments resulting from the intake of high-fat diet ([9]; oral 30, 100, 200 mg/kg for 9 weeks, vs HFD control, FIG. 9): remarkably reduced
blood glucose level upon insulin administration ([10]; 4 h fast, insulin 0.7 IU/kg i.p., FIG. 13): reduced in blood glucose level more fast
suppressive effect on high-fat diet-induced insulin resistance (iAUC values) ([10]; FIG. 14): higher suppressive effect on high-fat diet-induced insulin resistance
mortality [11]: did not cause mortality
side effects such as death, weight loss, organ failure ([12]; dose as high as 500 mg/kg): did not invoke significant side effects; also recorded: no side effects such as death, weight loss, organ failure, etc. were detected
changes in weight gain, food consumption, urological and serological examinations ([12]; up to 500 mg/kg, FIG. 12): No changes attributed to the administration of compound 1 were detected
maximum tolerance dose [13]: 2,000 mg/kg
abnormal responses after single dose ([14]; single dose of up to 2,000 mg per adult): no abnormal responses were observed
abnormal responses (such as dyslipidemia) after repetitive administration [14]: no abnormal responses, such as dyslipidemia, were reported; also recorded: no abnormal responses were observed
abnormal responses (such as dyslipidemia) after repetitive administration ([14]; listed as 2,3,5-trimethylhydroquinone-1-hexylether): no abnormal responses were observed
